Earlier results, collected in patent US7041675B2, “Heterocyclic compounds and their use as PARP inhibitors” (Abbott GmbH & Co. KG, priority 2000, dated 2006).

System: model of circulatory shock
Settings: S. Cuzzocrea et al., Br. J. Pharmacol. 1997

In the case of NC(=O)c1cccc(N)c1 [3-aminobenzamide], the “protective effects in a model of circulatory shock” value is given as “protective effects”.
